The test system of test [1] is leukocytes in porcine blood. Nature of the test: Microscopic flow chamber: leukocyte interaction with polysulfone SCD membrane. The format is cell-based, pig. The source says: A custom microscopic flow chamber system was set up to enable microscopic analysis of leukocyte interaction with the SCD membrane. The flow chamber consisted of a polycarbonate housing with an inlet and outlet for perfusion. A polysulfone membrane was affixed to the polycarbonate block with a gasket which directed shear flow. The thickness of the gasket (100 μm) along with the length (2 cm) and the width of the channel (1.5 mm) determined the volume of the flow chamber. Microscopic imaging was accomplished through an optical window made up of a cover glass affixed to the bottom of the polycarbonate block. Either isolated blood or purified leukocytes were used for this study.
Isolated blood was prone to activation from excessive handling. […] Blood passed through the flow chamber at a rate of 20 μL/min with calculated shear forces between 1-10 dynes/cm^2. […]
Microscopic analysis of cell capture events was accomplished using either a Zeiss Axiovert 200M or Axio-Observer epifluorescence microscope equipped with a microscope stage-top incubator to control environmental temperature and CO2 content. Fluorescence images were acquired with either a Zeiss MRm3 or an Icc1 camera at a frequency of 1 frame/second for 5 minutes, for analysis of leukocyte/membrane interaction, and at 1 frame/minute for 1 hour sequences, for analysis of long term leukocyte attachment. […]

Test [2] concerns leukocytes in human whole blood. In words: In vitro leukocyte activation in heparinized human whole blood. The following applies: for Lactoferrin: n = 4; for Elastase: n = 5. The test is classed as cell-based. The procedure:
Heparinized human whole blood was added to tubes with or without lipopolysaccharide (LPS) (10 μg/mL) or formyl-Methionyl-Leucyl-Phenylalanine (fMLF, 50 nM). […] The release of IL-6, IL-8, or IL-10 was measured using commercially available ELISA kits from R&D Systems. The release of elastase was measured using a commercially available ELISA kit from Bender MedSystems. The release of lactoferrin was measured using a commercially available ELISA kit from EMD Chemicals. […] Samples were incubated for various times at 37° C. and 5% CO2. CD11b activation was measured using an FITC-conjugated mouse anti-human antibody (AbD Serotech) and evaluated on an Accuri C6 flow cytometer.

Data on two compounds can be found in patent publication US11118162B2, “Cytopheresis cartridges and use thereof” (SeaStar Medical, Inc., priority 2010, dated 2021).

In the case of `O=C(O)CC(O)(CC(=O)O)C(=O)O` [Citrate], the “Persistent leukocyte adhesion events” value in test [1] (1 hour sequences, LPS and citrate versus LPS only) is recorded as “far fewer”. Further, the Rolling events entry in test [1] (LPS and citrate treated blood) is given as “observed increase”.
On to heparin, for which, in test [2] (Baseline), the Lactoferrin is recorded as 8.47 mg/mL and the Elastase is 2.73 mg/mL. In test [2] (Stimulated (LPS, fMLF)), this compound returned a Lactoferrin of 12.42 mg/mL and an Elastase of 4.52 mg/mL.
